Source: ChEMBL document CHEMBL1926526, “Mefloquine-oxazolidine derivatives, derived from mefloquine and arenecarbaldehydes: In vitro activity including against the multidrug-resistant tuberculosis strain T113” (Bioorg Med Chem, 2012)

Tests used:
[1] = Cytotoxicity against mouse macrophages assessed as cell viability at 1 uM after 18 hrs by MTT assay; type: cell-based, Macrophage; conditions: read-out: Activity
[2] = Cytotoxicity against mouse macrophages assessed as cell viability at 100 uM after 18 hrs by MTT assay; type: cell-based, Macrophage; conditions: read-out: Activity
[3] = system: Mycobacterium tuberculosis; test: Antimycobacterial activity against Mycobacterium tuberculosis H37Rv ATCC 27294 by alamar blue assay; type: functional
[4] = Cytotoxicity against mouse macrophages assessed as cell viability at 10 uM after 18 hrs by MTT assay; type: cell-based, Macrophage; conditions: read-out: Activity
[5] = system: Mycobacterium tuberculosis; test: Ratio of mefloquine MIC to compound MIC for Mycobacterium tuberculosis H37Rv ATCC 27294 by alamar blue assay; type: functional

Structure (SMILES)	viability at 18 h, 1 µM [1]	viability at 18 h, 100 µM [2]	MIC [3]	viability at 18 h, 10 µM [4]	Ratio [5]
O=[N+]([O-])c1ccc(C2O[C@@H](c3cc(C(F)(F)F)nc4c(C(F)(F)F)cccc34)[C@H]3CCCCN23)o1 (mixture of isomers)	100%	100%	99.8 µM	100%	–
FC(F)(F)c1cc([C@@H]2OC(c3ccc(Cl)c(Cl)c3)N3CCCC[C@H]23)c2cccc(C(F)(F)F)c2n1 (mixture of isomers)	100%	100%	> 250 µM	100%	–
FC(F)(F)c1cc([C@@H]2OC(c3c(Cl)cccc3Cl)N3CCCC[C@H]23)c2cccc(C(F)(F)F)c2n1 (mixture of isomers)	93%	59%	> 250 µM	92%	–
CCOc1cccc(C2O[C@@H](c3cc(C(F)(F)F)nc4c(C(F)(F)F)cccc34)[C@H]3CCCCN23)c1 (mixture of isomers)	100%	95%	24.5 µM	100%	–
FC(F)(F)c1cc([C@@H]2OC(c3ncc[nH]3)N3CCCC[C@H]23)c2cccc(C(F)(F)F)c2n1 (mixture of isomers)	100%	100%	27.4 µM	100%	–
COc1cccc(C2O[C@@H](c3cc(C(F)(F)F)nc4c(C(F)(F)F)cccc34)[C@H]3CCCCN23)c1OC (mixture of isomers)	100%	100%	11.9 µM	100%	2.8
FC(F)(F)c1cc([C@@H]2OC(c3cccc(Cl)c3Cl)N3CCCC[C@H]23)c2cccc(C(F)(F)F)c2n1 (mixture of isomers)	100%	100%	> 250 µM	100%	–
FC(F)(F)c1cc([C@@H]2OC(c3ccc(Cl)cc3Cl)N3CCCC[C@H]23)c2cccc(C(F)(F)F)c2n1 (mixture of isomers)	100%	98%	> 250 µM	100%	–
COc1cc(C2O[C@@H](c3cc(C(F)(F)F)nc4c(C(F)(F)F)cccc34)[C@H]3CCCCN23)cc(OC)c1OC (mixture of isomers)	100%	97%	22.5 µM	100%	–
O=[N+]([O-])c1ccc(C2O[C@@H](c3cc(C(F)(F)F)nc4c(C(F)(F)F)cccc34)[C@H]3CCCCN23)s1 (mixture of isomers)	100%	100%	12.1 µM	100%	2.7
OC(c1cc(C(F)(F)F)nc2c(C(F)(F)F)cccc12)C1CCCCN1 (stereo not given) [MEFLOQUINE]	95%	70%	–	81%	–
